The source of these data is US20260256751A1, “COMBINATION OF BETA-2-ADRENERGIC RECEPTOR AGONISTS AND GLP-1 RECEPTOR AGONISTS FOR USE IN TREATING HYPERGLYCAEMIA” (ATROGI AB, priority 2023, published 2026).

The subject of experiment [1] is differentiated L6-myotubes. The experiment in a line: cAMP production relative to isoprenaline (Biological example 2 of WO 2019/053427). The conditions noted are these: 0.25 h, compound at 10 μM, activity relative to isoproterenol at 10 μM. The class given is cell-based. From the text: For example, the level of cAMP production induced by a given compound can be determined by reference to the amount induced by a defined concentration of that compound relative to that induced by the same concentration of a reference compound, such as isoprenaline, using techniques known to those skilled in the art (e.g. following the protocol as described in the biological examples provided in WO 2019/053427, i.e. in cells, such as differentiated L6-myotubes, having been stimulated with isoprenaline or the compound with a final concentration of 1×10^−5 M, for 15 min in stimulation buffer, such as HBSS supplemented with 1% BSA, 5 mM HEPES and 1 mM IBMX, at pH 7.4).
(§1) Compounds described in publications referenced and incorporated herein were screened in accordance with the procedures outlined in Biological example 1 and Biological example 2 of WO 2019/053427.

Experiment [2] relates to differentiated L6-myotubes. The experiment in a line: Glucose uptake screen (Biological example 1 of WO 2019/053427). Particulars: compound at 10 μM, activity relative to isoproterenol at 10 μM, read-out: Biological example 1 of WO 2019/053427 (GU). The class given is cell-based. On the procedure:
as §1
L6-myoblasts were grown in Dulbecco's Modified Eagle's Medium (DMEM) containing 1 g/L glucose supplemented with 10% fetal bovine serum (FBS), 2 mM L-glutamine, 50 U/mL penicillin, […] streptomycin and 10 mM HEPES. Cells were plated at 1x 10^5 cells per mL in 24-well plates. After reaching 90% confluence the cells were grown in medium containing 2% FBS for 7 days where upon cells differentiated into myotubes. The differentiated L6-myotubes were serum-starved overnight in medium containing 0.5% fatty-acid free BSA and stimulated with Compound A at a final concentration of 1×10^−5 M in the presence of the selective β2-adrenergic receptor antagonist ICI-118551. After 1 h 40 min the cells were washed with warm, glucose free medium twice and another portion of agonist was added to the glucose free medium. After another 20 min of incubation the cells were exposed to 50 nM ^3H-2-deoxyglucose for 10 min before washed in ice cold glucose free medium three times and lysed in 400 µl/well 0.2 M NaOH for 1 h at 60° C. The cell lysate was mixed with 4 ml scintillation buffer (Emulsifier Safe, Perkin Elmer) and the radioactivity was detected in a P-counter (Tri-Carb 4810TR, Perkin Elmer).

A value given as a limit tells only on which side of the number the result lay.

As for `CCCCNC[C@H](O)c1ccnc(N)n1` [Compound 73, (S)-1-(2-amino-4-pyrimidinyl)-2-(butylamino)-1-ethanol], the Emax at 10 µM in experiment [1] was less than 25%; in experiment [2], 25 to 50%.

For the compound `CCCCNC[C@H](O)c1cnc(NC(=O)C(C)C)s1` [Compound 74, N-{5-[(2S)-2-(butylamino)-1-hydroxyethyl]-1,3-thiazol-2-yl}2-methylpropionamide], the results for the Emax at 10 µM in experiment [1] and in experiment [2] were less than 25% and 25 to 50%, respectively.

Consider `CCCCNC[C@H](O)c1cnc(N)s1` [Compound 75, (S)-1-(2-amino-1,3-thiazol-5-yl)-2-(butylamino)-1-ethanol], for which the Emax at 10 µM in experiment [1] was less than 25%; in experiment [2], 25 to 50%.

Consider `CC(C)(C)NC[C@H](O)c1cccc(F)c1F` [Compound 76, (R)-2-(tert-butylamino)-1-(2,3-difluorophenyl)-1-ethanol], for which the Emax at 10 µM is 25 to 50% in experiment [1] and more than 75% in experiment [2].

Consider `CCCCNC[C@H](O)c1cccc(F)c1F` [Compound 77, (R)-2-(butylamino)-1-(2,3-difluorophenyl)-1-ethanol], for which the figures for the Emax at 10 µM in experiment [1] and in experiment [2] were less than 25% and more than 75%, respectively.

In the case of `CC(C)(C)NC[C@H](O)c1ccccc1F` [Compound 78, (R)-2-(tert-butylamino)-1-(o-fluorophenyl)-1-ethanol], the Emax at 10 µM in experiment [1] is 25 to 50%; in experiment [2], more than 75%.

As to `CCCCNC[C@H](O)c1ccccc1F` [Compound 79, (R)-2-(butylamino)-1-(o-fluorophenyl)-1-ethanol], the Emax at 10 µM in experiment [1] is less than 25%; in experiment [2] it was more than 75%.

Consider `CC(C)(C)NC[C@H](O)c1ccc(F)cc1O` [Compound 80, (R)-2-(tert-butylamino)-1-(4-fluoro-2-hydroxyphenyl)-1-ethanol], for which the Emax at 10 µM in experiment [1] is less than 25%; in experiment [2], 50 to 75%.

In the case of `CCCCNC[C@H](O)c1ccc(F)cc1O` [Compound 81, (R)-2-(butylamino)-1-(4-fluoro-2-hydroxyphenyl)-1-ethanol], the Emax at 10 µM in experiment [1] was less than 25%; in experiment [2], 50 to 75%.

Consider `CC1(NC[C@H](O)c2cccc(F)c2)CC1` [Compound 82, (R)-1-(m-fluorophenyl)-2-(1-methylcyclopropylamino)-1-ethanol], for which the Emax at 10 µM was less than 25% in experiment [1] and more than 75% in experiment [2].

In the case of `CC1(NC[C@H](O)c2cccc(F)c2)CCC1` [Compound 83, (R)-1-(m-fluorophenyl)-2-(1-methylcyclobutylamino)-1-ethanol], the Emax at 10 µM is 25 to 50% in experiment [1] and more than 75% in experiment [2].

Consider `CC(C)(C)NC[C@H](O)c1ccc(F)c(O)c1` [Compound 84, (R)-2-(tert-butylamino)-1-(4-fluoro-3-hydroxyphenyl)-1-ethanol], for which the Emax at 10 µM was 50 to 75% in experiment [1] and more than 75% in experiment [2].

On to `CCCCNC[C@H](O)c1ccc(F)c(O)c1` [Compound 85, (R)-2-(butylamino)-1-(4-fluoro-3-hydroxyphenyl)-1-ethanol], for which the Emax at 10 µM in experiment [1] was less than 25%; in experiment [2], more than 75%.

For the compound `CC(C)(C)NC[C@H](O)c1cccc(O)c1F` [Compound 86, (R)-2-(tert-butylamino)-1-(2-fluoro-3-hydroxyphenyl)-1-ethanol], the Emax at 10 µM in experiment [1] and in experiment [2] was 50 to 75% each time.

For `CCCCNC[C@H](O)c1cccc(O)c1F` [Compound 87, (R)-2-(butylamino)-1-(2-fluoro-3-hydroxyphenyl)-1-ethanol], the Emax at 10 µM is 25 to 50% in experiment [1] and more than 75% in experiment [2].

As to `CCCCNC[C@H](O)c1cnc(NC(=O)C(C)C)nc1` [Compound 88, N-{5-[(R)-2-(butylamino)-1-hydroxyethyl]-2-pyrimidinyl}2-methylpropionamide], the values for the Emax at 10 µM in experiment [1] and in experiment [2] were less than 25% and 50 to 75%, respectively.

`CCCCNC[C@H](O)c1cnc(N)nc1` [Compound 89, (R)-1-(2-amino-5-pyrimidinyl)-2-(butylamino)-1-ethanol]: the Emax at 10 µM was less than 25% in experiment [1] and 50 to 75% in experiment [2].

As to `CCCCNC[C@H](O)c1cccc(N)c1F` [Compound 90, (R)-1-(3-amino-2-fluorophenyl)-2-(butylamino)-1-ethanol], the Emax at 10 µM in experiment [1] is less than 25%; in experiment [2], 50 to 75%.

As to `CC(C)(C)NC[C@H](O)c1cccc(N)c1F` [Compound 91, (R)-1-(3-amino-2-fluorophenyl)-2-(tert-butylamino)-1-ethanol], the Emax at 10 µM in experiment [1] is 25 to 50%; in experiment [2], more than 75%.

Turning to `CCC[C@H]1CCC[C@H]([C@H](O)c2ccc(F)cc2)N1` [Compound 92, (R)-[(2R,6S)-6-propyl-2-piperidyl](p-fluorophenyl)methanol], the Emax at 10 µM in experiment [1] is less than 25%; in experiment [2], 25 to 50%.

With `CCC[C@H]1CCC[C@H]([C@H](O)c2ccccc2F)N1` [Compound 93, (R)-[(2R,6S)-6-propyl-2-piperidyl](o-fluorophenyl)methanol], the Emax at 10 µM is less than 25% in experiment [1] and 25 to 50% in experiment [2].

On to `CCC[C@@H]1CCC[C@H]([C@H](O)c2ccc(F)cc2)N1` [Compound 94, (R)-[(2R,6R)-6-propyl-2-piperidyl](p-fluorophenyl)methanol], for which the values for the Emax at 10 µM in experiment [1] and in experiment [2] were less than 25% and 50 to 75%, respectively.

In the case of `CC(C)(C)NC[C@H](O)c1ccc(O)cn1` [Compound 95, 6-[(S)-2-(tert-butylamino)-1-hydroxyethyl]-3-pyridinol], the Emax at 10 µM in experiment [1] was less than 25%; in experiment [2] it was 50 to 75%.

In the case of `CC(C)(C)NC[C@H](O)c1ccc(F)cn1` [Compound 96, (S)-2-(tert-butylamino)-1-(5-fluoro-2-pyridyl)-1-ethanol], the Emax at 10 µM in experiment [1] was less than 25%; in experiment [2], 50 to 75%.

`CCC[C@@H]1CCC[C@H]([C@H](O)c2ccccc2F)N1` [Compound 97, (R)-[(2R,6R)-6-propyl-2-piperidyl](o-fluorophenyl)methanol]: the figures for the Emax at 10 µM in experiment [1] and in experiment [2] were less than 25% and 50 to 75%, respectively.

With `Cn1ccc([C@@H](O)CNC(C)(C)C)cc1=O` [Compound 98, 4-[(R)-2-(tert-butylamino)-1-hydroxyethyl]-1-methyl-2(1H)-pyridinone], the Emax at 10 µM in experiment [1] was less than 25%; in experiment [2], more than 75%.

With `CC(C)(C)NC[C@H](O)c1cncc(F)c1` [Compound 99, (R)-2-(tert-butylamino)-1-(5-fluoro-3-pyridyl)-1-ethanol], the results for the Emax at 10 µM in experiment [1] and in experiment [2] were 25 to 50% and more than 75%, respectively.

`CC(C)(C)NC[C@H](O)c1cncc(O)c1` [Compound 100, 5-[(R)-2-(tert-butylamino)-1-hydroxyethyl]-3-pyridinol]: the values for the Emax at 10 µM in experiment [1] and in experiment [2] were less than 25% and more than 75%, respectively.

In the case of `CC1(C)CCC[C@H]([C@@H](O)c2cccc(F)c2)N1` [Compound 101, (S)-[(R)-6,6-dimethyl-2-piperidyl](m-fluorophenyl)methanol], the Emax at 10 µM in experiment [1] is less than 25%; in experiment [2], 25 to 50%.

Turning to `CC1(C)CCC[C@H]([C@H](O)c2cccc(F)c2)N1` [Compound 102, (R)-[(R)-6,6-dimethyl-2-piperidyl](m-fluorophenyl)methanol], the results for the Emax at 10 µM in experiment [1] and in experiment [2] were less than 25% and 50 to 75%, respectively.
